The subject of experiment [1] is Rattus norvegicus. Put plainly: Antiallodynic effect investigated in chronic sciatic nerve constriction injury rats after 1 hr of 60 mg/kg i.p. administration and value reported as paw withdrawal threshold. It is filed as functional. The conditions noted are these: route intraperitoneal.
Experiment [2] has as its system Rattus norvegicus. The experiment is described as follows: Antiallodynic effect investigated in chronic sciatic nerve constriction injury rats before 1 hr of 60 mg/kg i.p. administration and value reported as paw withdrawal threshold. It is filed as functional. The conditions noted are these: route intraperitoneal.

Molecules are shown by their SMILES.

As for `CC(C)C[C@H](CN)CC(=O)O` [PREGABALIN], the results for the PWT with Rattus norvegicus [1] and with Rattus norvegicus [2] were 18.86 g and 3.43 g, respectively.

For `CC(C)C[C@@H](CN)CC(=O)OCCCCCOC(=O)CC1(CN)CCCCC1.Cl.Cl` (stereo in doubt; 20030417), the PWT is reported as 13.8 g with Rattus norvegicus [1] (60 mg/kg) and 2.8 g in the experiment on Rattus norvegicus [2] (60 mg/kg). `CCC(COC(=O)CC1(CN)CCCCC1)OC(=O)C[C@H](CN)CC(C)C.Cl.Cl` (stereo in doubt; 2003415): the PWT with Rattus norvegicus [2] (60 mg/kg) worked out at 4.4 g. In the case of `CC(C)C[C@@H](CN)CC(=O)OCCOC(=O)CC1(CN)CCCCC1.Cl.Cl`, the PWT in the experiment with Rattus norvegicus [1] amounted to 19 g; in the experiment with Rattus norvegicus [2], 3.33 g. As for `CC(C)C[C@H](CN)CC(=O)OCCCOC(=O)C[C@H](CN)CC(C)C.Cl.Cl`, the PWT with Rattus norvegicus [1] was found to be 10.33 g; with Rattus norvegicus [2] it was 6 g. On to `COC(=O)CC1(CN)CCCCC1.Cl`, for which the PWT amounted to 22.8 g in the experiment on Rattus norvegicus [1] and 6.4 g in the experiment on Rattus norvegicus [2]. With `CC(C)C[C@H](CN)CC(=O)OCCOC(=O)C[C@H](CN)CC(C)C.Cl.Cl`, the values for the PWT in the experiment on Rattus norvegicus [1] and in the experiment with Rattus norvegicus [2] were 7.9 g and 2.9 g, respectively. With `COc1ccc(C(CN(C)C)C2(OC(=O)CCC(=O)NC34CC5CC(C)(CC(C)(C5)C3)C4)CCCCC2)cc1.Cl.Cl` (configuration not stated), the figures for the PWT in the experiment with Rattus norvegicus [1] and with Rattus norvegicus [2] were 5.6 g and 3.36 g, respectively. For `CC(C)C[C@@H](CN)CC(=O)OCC(C)(C)COC(=O)CC1(CN)CCCCC1.Cl.Cl`, in that order: 7.2 g and 4.4 g. Take `CC(C)C[C@H](CNC(=O)CCC(=O)NC12CC3CC(C)(CC(C)(C3)C1)C2)CC(=O)O`: the PWT in the experiment with Rattus norvegicus [1] was determined as 13.2 g; in the experiment with Rattus norvegicus [2] it was 3.32 g. As to `CC(C)C[C@@H](CN)CC(=O)OC(C)CCOC(=O)CC1(CN)CCCCC1.Cl.Cl` (some centres not stated), the PWT is reported as 11.4 g with Rattus norvegicus [1] and 4 g with Rattus norvegicus [2].

In the case of `CC(C)C[C@H](CN)CC(=O)OCCCCOC(=O)C[C@H](CN)CC(C)C.Cl.Cl`, the PWT is recorded as 8.5 g with Rattus norvegicus [1] and 4.5 g in the experiment with Rattus norvegicus [2]. On the same counts, the results for `CC(C)C[C@@H](CN)CC(=O)OCCCCOC(=O)CC1(CN)CCCCC1.Cl.Cl` are 8.56 g and 4.17 g.

`Cl.Cl.NCC1(CC(=O)OCCOC(=O)CC2(CN)CCCCC2)CCCCC1`: the figures for the PWT in the experiment on Rattus norvegicus [1] and with Rattus norvegicus [2] were 18.67 g and 3.4 g, respectively. For `CCC(COC(=O)CC1(CN)CCCCC1)OC(=O)C[C@H](CN)CC(C)C.Cl.Cl` (stereo in doubt; 2003325), the PWT turned out to be 6.8 g in the experiment on Rattus norvegicus [1] and 4 g with Rattus norvegicus [2] (60 mg/kg). Turning to `Cl.Cl.NCC1(CC(=O)OCCCCOC(=O)CC2(CN)CCCCC2)CCCCC1`, the figures for the PWT in the experiment with Rattus norvegicus [1] and in the experiment with Rattus norvegicus [2] were 5.6 g and 4 g, respectively.

As for `CC(C)C[C@@H](CN)CC(=O)OCCCCCOC(=O)CC1(CN)CCCCC1.Cl.Cl` (stereo in doubt; 2003327), the figures for the PWT in the experiment on Rattus norvegicus [1] (60 mg/kg) and in the experiment on Rattus norvegicus [2] (60 mg/kg) were 20.67 g and 3.33 g, respectively. Turning to `COC(=O)C[C@@H](CN)CC(C)C.Cl`, the PWT in the experiment with Rattus norvegicus [1] stood at 6.8 g; in the experiment with Rattus norvegicus [2] it was 5.2 g.

`CC(C)C[C@@H](CN)CC(=O)OCCCOC(=O)CC1(CN)CCCCC1.Cl.Cl`: the PWT was determined as 7.8 g with Rattus norvegicus [1] and 3.6 g with Rattus norvegicus [2]. As to `CC(C)C[C@H](CNC(=O)CCC(=O)NC[C@@H](CC(=O)O)CC(C)C)CC(=O)O`, the PWT in the experiment with Rattus norvegicus [1] came out at 6 g; in the experiment on Rattus norvegicus [2], 4 g. On to `CC12CC3CC(C)(C1)CC(N)(C3)C2.Cl` [MEMANTINE HYDROCHLORIDE], for which the PWT is recorded as 10.4 g with Rattus norvegicus [1] and 2.8 g in the experiment with Rattus norvegicus [2]. With `COc1ccc(C(CN(C)C)C2(O)CCCCC2)cc1` (configuration not stated) [VENLAFAXINE], the values for the PWT with Rattus norvegicus [1] and in the experiment on Rattus norvegicus [2] were 22 g and 2 g, respectively. For `Cl.Cl.NCC1(CC(=O)OCCCOC(=O)CC2(CN)CCCCC2)CCCCC1`, in that order: 19.4 g and 4.8 g.

As to `NCC1(CC(=O)O)CCCCC1` [GABAPENTIN], the results for the PWT in the experiment on Rattus norvegicus [1] and in the experiment on Rattus norvegicus [2] were 13.5 g and 2.23 g, respectively.

For the origin of these results see ChEMBL document CHEMBL1146733, “Effect of gabapentin derivates on mechanical allodynia-like behaviour in a rat model of chronic sciatic constriction injury” (2004).
